From patent US20090075937A1, “LHRH ANTAGONISTS FOR THE TREATMENT OF LOWER URINARY TRACT SYMPTOMS” (AETERNA ZENTARIS GmbH, priority 2007, published 2009)
Values belong to the compound of their own block, whether it stands above or below them.

Tests used:
[1] = test system: study subjects; assay: Peroral treatment of study subjects with tetrahydrocarbazole compounds: chemical (hormonal) castration (Examples 4-9); assay type: in vivo, human; details: 50 to 150 mg perorally daily as a single dose, schemes of 6 weeks to 6 months
Protocol: In the course of the present invention, the terms “hormone” and “hormonal” within for instance the terms “hormone castration”, “chemical (hormonal) castration” or “hormone withdrawal symptoms” refer to follicle stimulating hormone (FSH), luteinizing hormone (LH) and/or testosterone. Preferably, chemical (hormonal) castration is a testosterone castration and refers to a testosterone blood level of equal or below 1.2 ng/mL, preferably 0.5 ng/mL.
Study subjects are treated with compound (76) with the following doses according to the following administration schemes: • in a 3 month trial, 75 mg or 150 mg compound (76) administered perorally daily as a single dose on day 2-7 of the menstrual cycle • in a 3 months trial, 75 mg, 100 mg or 150 mg compound (76) administered perorally daily as a single dose on day 2-7 of the menstrual cycle followed by a 3 months treatment-free period • in a 6 months trial, 75 mg or 150 mg compound (76) administered perorally daily as a single dose • 50 mg or 150 mg per compound (76) administered daily as a single dose over 42 days (6 weeks)
Study subjects are treated with compound (68) with the following doses according to the following administration schemes: • in a 3 month trial, 75 mg or 150 mg compound (68) administered perorally daily as a single dose on day 2-7 of the menstrual cycle • in a 3 months trial, 75 mg, 100 mg or 150 mg compound (68) administered perorally daily as a single dose on day 2-7 of the menstrual cycle followed by a 3 months treatment-free period • in a 6 months trial, 75 mg or 150 mg compound (68) administered perorally daily as a single dose • 50 mg or 150 mg per compound (68) administered daily as a single dose over 42 days (6 weeks)
Study subjects are treated with compound 36 with the following doses according to the following administration schemes: • in a 3 month trial, 75 mg or 150 mg compound 36 administered perorally daily as a single dose on day 2-7 of the menstrual cycle • in a 3 months trial, 75 mg, 100 mg or 150 mg compound 36 administered perorally daily as a single dose on day 2-7 of the menstrual cycle followed by a 3 months treatment-free period • in a 6 months trial, 75 mg or 150 mg compound 36 administered perorally daily as a single dose • 50 mg or 150 mg per compound 36 administered daily as a single dose over 42 days (6 weeks)
Study subjects are treated with compound 37 with the following doses according to the following administration schemes: • in a 3 month trial, 75 mg or 150 mg compound 37 administered perorally daily as a single dose on day 2-7 of the menstrual cycle • in a 3 months trial, 75 mg, 100 mg or 150 mg compound 37 administered perorally daily as a single dose on day 2-7 of the menstrual cycle followed by a 3 months treatment-free period • in a 6 months trial, 75 mg or 150 mg compound 37 administered perorally daily as a single dose • 50 mg or 150 mg per compound 37 administered daily as a single dose over 42 days (6 weeks)
Study subjects are treated with compound 52 with the following doses according to the following administration schemes: • in a 3 month trial, 75 mg or 150 mg compound 52 administered perorally daily as a single dose on day 2-7 of the menstrual cycle • in a 3 months trial, 75 mg, 100 mg or 150 mg compound 52 administered perorally daily as a single dose on day 2-7 of the menstrual cycle followed by a 3 months treatment-free period • in a 6 months trial, 75 mg or 150 mg compound 52 administered perorally daily as a single dose • 50 mg or 150 mg per compound 52 administered daily as a single dose over 42 days (6 weeks)

[2] = test system: study subjects; assay: Peroral treatment of study subjects with tetrahydrocarbazole compounds: nocturia frequency, urgency to urinate, frequency of emptying (Examples 4-9); assay type: in vivo, human; details: 50 to 150 mg perorally daily as a single dose, schemes of 6 weeks to 6 months
[3] = test system: study subjects; assay: Nocturia: how often the study subjects got up during the night in order to urinate; assay type: in vivo, human; details: for Nocturia (n-times, mean): 15 + 15: 15 mg at week 0 and week 2
Source text: (§1) The results shown are percentage variations from baseline at the beginning of the study (week 0).
The results shown are mean values, how often the study subjects had to get up.

[4] = test system: study subjects; assay: Frequency of emptying: how often the study subjects had to urinate a second time within a 2 hour test period; assay type: in vivo, human; details: for Frequency of emptying (n-times, mean): 15 + 15: 15 mg at week 0 and week 2
Source text: as §1
The results shown are mean values, how often the study subjects had to urinate a second time.

[5] = test system: study subjects; assay: Urgency to urinate: how often the study subjects had difficulties to delay the urination; assay type: in vivo, human; details: for Urgency to urinate (n-times, mean): 15 + 15: 15 mg at week 0 and week 2
Source text: The results shown are mean values, how often the study subjects had difficulties.

[6] = test system: testosterone blood levels; assay: Median testosterone blood levels / chemical (hormonal) castration; details: blood level
Protocol: Preferably, chemical (hormonal) castration is a testosterone castration and refers to a testosterone blood level of equal or below 1.2 ng/mL, preferably 0.5 ng/mL.
Study subjects were treated with Cetrorelix pamoate with the following doses according to the following administration schemes: • 60 mg Cetrorelix pamaote administered at week 0 and 30 mg Cetrorelix pamaote administered at week 2 (treatment period) followed by up to 5 months of no treatment (treatment-free period) • 60 mg Cetrorelix pamaote administered at week 0 and 60 mg Cetrorelix pamaote administered at week 2 (treatment period) followed by up to 5 months of no treatment (treatment-free period)
Study subjects were treated with Cetrorelix acetate with the following doses according to the following administration schemes: • 5 mg Cetrorelix acetate administered at week 0, 1, 2 and 3 (total monthly dose of 20 mg) (treatment period) followed by up to 4 months of no treatment (treatment-free period) • 10 mg Cetrorelix acetate administered at week 0 and 10 mg Cetrorelix acetate administered at week 2 (treatment period) followed by up to 4 months of no treatment (treatment-free period) • 10 mg Cetrorelix acetate administered at week 0, 1, 2 and 3 (total monthly dose of 40 mg) (treatment period) followed by up to 4 months of no treatment (treatment-free period)
Study subjects were treated with Ozarelix with the following doses according to the following administration schemes: • 15 mg Ozarelix administered at week 0 and 15 mg Ozarelix administered at week 2 (treatment period) followed by up to 4 months of no treatment (treatment-free period)

[7] = test system: study subjects; assay: IPSS irritative subscore (sum of nocturia, frequency of emptying and urgency to urinate); assay type: in vivo, human; details: for IPSS irritative subscore (nocturia, frequency of emptying, urgency to urinate): percentage variation from baseline
Source text: as §1

[8] = 15+15 mg scheme, largest difference, n-times mean
[9] = 60+30 mg and 60+60 mg schemes, largest difference over weeks 4-24
[10] = 60 + 30: 60 mg week 0, 30 mg week 2, Week 0
[11] = 60 + 30: 60 mg week 0, 30 mg week 2, Week 4
[12] = 60 + 30: 60 mg week 0, 30 mg week 2, Week 8
[13] = 60 + 30: 60 mg week 0, 30 mg week 2, Week 12
[14] = 60 + 30: 60 mg week 0, 30 mg week 2, Week 16
[15] = 60 + 30: 60 mg week 0, 30 mg week 2, Week 20
[16] = 60 + 30: 60 mg week 0, 30 mg week 2, Week 24
[17] = 60 + 60: 60 mg week 0, 60 mg week 2, Week 0
[18] = 60 + 60: 60 mg week 0, 60 mg week 2, Week 4
[19] = 60 + 60: 60 mg week 0, 60 mg week 2, Week 8
[20] = 60 + 60: 60 mg week 0, 60 mg week 2, Week 12
[21] = 60 + 60: 60 mg week 0, 60 mg week 2, Week 16
[22] = 60 + 60: 60 mg week 0, 60 mg week 2, Week 20
[23] = 60 + 60: 60 mg week 0, 60 mg week 2, Week 24

Compound: CCC(C)[C@H](NC(=O)Cc1ccccc1F)C(=O)N[C@]1(C(=O)N[C@H](C(=O)NCN2CCOCC2)C(C)CC)CCc2[nH]c3c(C(F)(F)F)cccc3c2C1 (stereo partly drawn) [Compound 36, (R)-3-{(S)-2-[2-(2-Fluoro-phenyl)-acetylamino]-3-methyl-pentanoylamino}-8-trifluoromethyl-2,3,4,9-tetrahydro-1H-carbazole-3-carboxylic acid {(S)-2-methyl-1-[(morpholin-4-ylmethyl)-carbamoyl]-butyl}-amide]
chemical (hormonal) castration [1]: successfully prevented | nocturia frequency, urgency to urinate and/or frequency of emptying compared to placebo [2]: decrease

Compound: Ozarelix
decrease in nocturia frequency compared to placebo [3, 8]: up to 0.76 | Nocturia (n-times, mean) ([3]; Week 0): 2.73 n-times | Nocturia (n-times, mean) ([3]; Week 4): 1.83 n-times | Nocturia (n-times, mean) ([3]; Week 8): 1.43 n-times | Nocturia (n-times, mean) ([3]; Week 12): 1.54 n-times | Nocturia (n-times, mean) ([3]; Week 16): 1.54 n-times | Nocturia (n-times, mean) ([3]; Week 20): 1.50 n-times | Nocturia (n-times, mean) ([3]; Week 24): 1.54 n-times | decrease in frequency of emptying compared to placebo [4, 8]: up to 0.30 | Frequency of emptying (n-times, mean) ([4]; Week 4): 2.48 n-times | Frequency of emptying (n-times, mean) ([4]; Week 8): 2.11 n-times | Frequency of emptying (n-times, mean) ([4]; Week 12): 1.82 n-times | Frequency of emptying (n-times, mean) ([4]; Week 16): 1.75 n-times | Frequency of emptying (n-times, mean) ([4]; Week 20): 1.71 n-times | Frequency of emptying (n-times, mean) ([4]; Week 24): 1.75 n-times | decrease in urgency to urinate compared to placebo [5, 8]: up to 0.74 | Urgency to urinate (n-times, mean) ([5]; Week 0): 2.80 n-times | Urgency to urinate (n-times, mean) ([5]; Week 4): 2.17 n-times | Urgency to urinate (n-times, mean) ([5]; Week 8): 1.89 n-times | Urgency to urinate (n-times, mean) ([5]; Week 12): 1.75 n-times | Urgency to urinate (n-times, mean) ([5]; Week 16): 1.39 n-times | Urgency to urinate (n-times, mean) ([5]; Week 20): 1.71 n-times | Urgency to urinate (n-times, mean) ([5]; Week 24): 1.89 n-times | Testosterone [ng/mL] (median) ([6]; 15 + 15: 15 mg at week 0 and week 2, Week 0): 3.57 ng/mL | Testosterone [ng/mL] (median) ([6]; 15 + 15: 15 mg at week 0 and week 2, Week 4): 2.97 ng/mL | Testosterone [ng/mL] (median) ([6]; 15 + 15: 15 mg at week 0 and week 2, Week 8): 4.19 ng/mL | Testosterone [ng/mL] (median) ([6]; 15 + 15: 15 mg at week 0 and week 2, Week 12): 4.11 ng/mL | Testosterone [ng/mL] (median) ([6]; 15 + 15: 15 mg at week 0 and week 2, Week 16): 3.82 ng/mL | Testosterone [ng/mL] (median) ([6]; 15 + 15: 15 mg at week 0 and week 2, Week 20): 3.92 ng/mL | Testosterone [ng/mL] (median) ([6]; 15 + 15: 15 mg at week 0 and week 2, Week 24): 3.86 ng/mL

Compound: Cetrorelix pamoate
further decrease in nocturia frequency compared to placebo [3, 9]: up to 11% | Nocturia (percentage variation from baseline) [3, 10]: 0% | Nocturia (percentage variation from baseline) [3, 11]: −14% | Nocturia (percentage variation from baseline) [3, 12]: −26% | Nocturia (percentage variation from baseline) [3, 13]: −27% | Nocturia (percentage variation from baseline) [3, 14]: −27% | Nocturia (percentage variation from baseline) [3, 15]: −33% | Nocturia (percentage variation from baseline) [3, 16]: −26% | Nocturia (percentage variation from baseline) [3, 17]: 0% | Nocturia (percentage variation from baseline) [3, 18]: −17% | Nocturia (percentage variation from baseline) [3, 19]: −26% | Nocturia (percentage variation from baseline) [3, 20]: −30% | Nocturia (percentage variation from baseline) [3, 21]: −25% | Nocturia (percentage variation from baseline) [3, 22]: −27% | Nocturia (percentage variation from baseline) [3, 23]: −29% | further decrease in IPSS irritative subscore compared to placebo [7, 9]: up to 30% | IPSS irritative subscore (nocturia, frequency of emptying, urgency to urinate) [7, 10]: 0% | IPSS irritative subscore (nocturia, frequency of emptying, urgency to urinate) [7, 11]: −14.8% | IPSS irritative subscore (nocturia, frequency of emptying, urgency to urinate) [7, 12]: −33.3% | IPSS irritative subscore (nocturia, frequency of emptying, urgency to urinate) [7, 13]: −29.3% | IPSS irritative subscore (nocturia, frequency of emptying, urgency to urinate) [7, 14]: −33.3% | IPSS irritative subscore (nocturia, frequency of emptying, urgency to urinate) [7, 15]: −33.3% | IPSS irritative subscore (nocturia, frequency of emptying, urgency to urinate) [7, 16]: −38% | IPSS irritative subscore (nocturia, frequency of emptying, urgency to urinate) [7, 17]: 0% | IPSS irritative subscore (nocturia, frequency of emptying, urgency to urinate) [7, 18]: −16.7% | IPSS irritative subscore (nocturia, frequency of emptying, urgency to urinate) [7, 19]: −25% | IPSS irritative subscore (nocturia, frequency of emptying, urgency to urinate) [7, 20]: −25% | IPSS irritative subscore (nocturia, frequency of emptying, urgency to urinate) [7, 21]: −25% | IPSS irritative subscore (nocturia, frequency of emptying, urgency to urinate) [7, 22]: −27.6% | IPSS irritative subscore (nocturia, frequency of emptying, urgency to urinate) [7, 23]: −40% | further decrease in frequency (of emptying) compared to placebo [4, 9]: up to 29% | Frequency of emptying (percentage variation from baseline) [4, 10]: 0% | Frequency of emptying (percentage variation from baseline) [4, 11]: −9% | Frequency of emptying (percentage variation from baseline) [4, 12]: −19% | Frequency of emptying (percentage variation from baseline) [4, 13]: −20% | Frequency of emptying (percentage variation from baseline) [4, 14]: −26% | Frequency of emptying (percentage variation from baseline) [4, 15]: −27% | Frequency of emptying (percentage variation from baseline) [4, 16]: −31% | Frequency of emptying (percentage variation from baseline) [4, 17]: 0% | Frequency of emptying (percentage variation from baseline) [4, 18]: −16% | Frequency of emptying (percentage variation from baseline) [4, 19]: −25% | Frequency of emptying (percentage variation from baseline) [4, 20]: −24% | Frequency of emptying (percentage variation from baseline) [4, 21]: −29% | Frequency of emptying (percentage variation from baseline) [4, 22]: −25% | Frequency of emptying (percentage variation from baseline) [4, 23]: −34% | Testosterone [ng/mL] (median) [6, 10]: 3.96 ng/mL | Testosterone [ng/mL] (median) [6, 11]: 2.59 ng/mL | Testosterone [ng/mL] (median) [6, 12]: 4.01 ng/mL | Testosterone [ng/mL] (median) [6, 13]: 4.10 ng/mL | Testosterone [ng/mL] (median) [6, 14]: 3.96 ng/mL | Testosterone [ng/mL] (median) [6, 15]: 4.12 ng/mL | Testosterone [ng/mL] (median) [6, 16]: 4.30 ng/mL | Testosterone [ng/mL] (median) [6, 17]: 3.71 ng/mL | Testosterone [ng/mL] (median) [6, 18]: 2.19 ng/mL | Testosterone [ng/mL] (median) [6, 19]: 3.70 ng/mL | Testosterone [ng/mL] (median) [6, 20]: 3.73 ng/mL

Continued, in another order:

chemical (hormonal) castration [1]: successfully prevented
Compound: CCC(C)[C@H](NC(=O)Cc1ccccc1F)C(=O)N[C@]1(C(=O)N[C@H](C(=O)NNc2ccccc2)C(C)CC)CCc2[nH]c3c(C(F)(F)F)cccc3c2C1 (stereo partly drawn) [Compound 144, (R)-3-{(S)-2-[2-(2-Fluoro-phenyl)-acetylamino]-3-methyl-pentanoylamino}-8-trifluoromethyl-2,3,4,9-tetrahydro-1H-carbazole-3-carboxylic acid [(S)-2-methyl-1-(N′-phenyl-hydrazinocarbonyl)-butyl]-amide]
nocturia frequency, urgency to urinate and/or frequency of emptying compared to placebo [2]: decrease

chemical (hormonal) castration [1]: successfully prevented
Compound: CCC(C)[C@H](NC(=O)Cc1ccccc1F)C(=O)N[C@]1(C(=O)N[C@H](C(=S)NCN2CCOCC2)C(C)CC)CCc2[nH]c3c(C(F)(F)F)cccc3c2C1 (stereo partly drawn) [Compound 37, (R)-3-{(S)-2-[2-(2-Fluoro-phenyl)-acetylamino]-3-methyl-pentanoylamino}-8-trifluoromethyl-2,3,4,9-tetrahydro-1H-carbazole-3-carboxylic acid {(S)-2-methyl-1-[(morpholin-4-ylmethyl)-thiocarbamoyl]-butyl}-amide]
nocturia frequency, urgency to urinate and/or frequency of emptying compared to placebo [2]: decrease

chemical (hormonal) castration [1]: successfully prevented
Compound: CCC(C)[C@H](NC(=O)Cc1ccccc1F)C(=O)N[C@]1(C(=O)N[C@H](C(N)=S)C(C)CC)CCc2[nH]c3c(C(F)(F)F)cccc3c2C1 (stereo partly drawn) [compound (76), (R)-3-{(S)-2-[2-(2-fluorophenyl)acetylamino]-3-methyl-pentanoylamino}-8-trifluoromethyl-2,3,4,9-tetrahydro-1H-carbazole-3-carboxylic acid ((S)-2-methyl-1-thiocarbamoylbutyl)amide]
nocturia frequency, urgency to urinate and/or frequency of emptying compared to placebo [2]: decrease
